Earlier results as cited in US20040248775A1, “Methods for screening inhibitors of apoptosis” (Wyeth, priority 2003, published 2004).

Target: T1, Apaf-1 (Homo sapiens, UniProt O14727)
T1 sequence (O14727 1-1248): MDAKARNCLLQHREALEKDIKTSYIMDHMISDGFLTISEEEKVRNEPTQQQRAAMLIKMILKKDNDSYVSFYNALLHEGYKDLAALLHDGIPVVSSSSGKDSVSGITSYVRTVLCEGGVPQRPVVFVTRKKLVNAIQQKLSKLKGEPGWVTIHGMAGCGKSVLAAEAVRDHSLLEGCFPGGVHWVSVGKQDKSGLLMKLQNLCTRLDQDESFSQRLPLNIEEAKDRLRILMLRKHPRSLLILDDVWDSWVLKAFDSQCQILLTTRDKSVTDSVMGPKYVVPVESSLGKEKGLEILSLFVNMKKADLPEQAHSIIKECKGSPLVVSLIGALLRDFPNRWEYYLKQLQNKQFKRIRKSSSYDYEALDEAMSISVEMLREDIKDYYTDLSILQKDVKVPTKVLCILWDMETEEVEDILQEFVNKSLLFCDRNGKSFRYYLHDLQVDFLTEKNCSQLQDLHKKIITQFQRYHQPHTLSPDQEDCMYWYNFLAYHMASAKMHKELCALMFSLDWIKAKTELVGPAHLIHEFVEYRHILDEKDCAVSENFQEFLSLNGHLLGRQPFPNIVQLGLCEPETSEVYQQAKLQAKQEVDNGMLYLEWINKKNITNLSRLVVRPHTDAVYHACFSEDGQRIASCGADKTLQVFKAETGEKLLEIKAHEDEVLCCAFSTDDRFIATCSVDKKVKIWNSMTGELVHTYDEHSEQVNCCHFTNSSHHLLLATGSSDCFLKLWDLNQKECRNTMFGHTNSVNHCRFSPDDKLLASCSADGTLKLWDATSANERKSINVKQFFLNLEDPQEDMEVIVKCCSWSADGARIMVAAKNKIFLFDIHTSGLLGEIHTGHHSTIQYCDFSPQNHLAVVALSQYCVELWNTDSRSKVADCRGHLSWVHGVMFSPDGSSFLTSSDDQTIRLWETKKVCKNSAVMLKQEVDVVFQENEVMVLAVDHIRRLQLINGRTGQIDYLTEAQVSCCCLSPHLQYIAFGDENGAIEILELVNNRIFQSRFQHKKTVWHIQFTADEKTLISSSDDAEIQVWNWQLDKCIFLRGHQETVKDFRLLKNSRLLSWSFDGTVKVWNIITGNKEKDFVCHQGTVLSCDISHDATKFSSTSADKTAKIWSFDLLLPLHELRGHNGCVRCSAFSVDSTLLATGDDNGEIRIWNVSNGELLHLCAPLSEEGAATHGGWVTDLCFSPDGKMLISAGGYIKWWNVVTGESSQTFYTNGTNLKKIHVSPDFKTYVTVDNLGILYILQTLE
Details: Jiang et al., 2000; cited from earlier work

Q: Which “affinity of purine nucleotides for Apaf-1” value does the source give for `Nc1ncnc2c1ncn2[C@H]1C[C@H](O)[C@@H](COP(=O)(O)OP(=O)(O)OP(=O)(O)O)O1` [dATP] here?
A: greatest affinity
